From publication PMC11818082, “2-{N-[ω-(1-Benzylpiperidin-4-yl)alkyl]amino}-6-[(prop-2-yn-1-yl)amino]pyridine-3,5-dicarbonitriles Showing High Affinity for σ1/2 Receptors” (International Journal of Molecular Sciences, 2025)
Several values for one entry are separate records, joined by “and”; a condition that tells them apart may be missing. Equal entries are not always repeated. Where two headings read alike, the source gives them in different places.

Tests used:
eqBuChE = details: cited from earlier work; for IC50: read-out: IC50 BuChE
human MAO B = system: human MAO B; set-up: method as in earlier work; details: cited from earlier work
rat σ2R = molecular target: T1, rat σ2R (Rattus norvegicus, UniProt Q5U3Y7); test: σ2R competitive radioligand binding assay (rat liver membranes)
T1 construct: The thawed membrane preparation of rat liver (about 100 µg of protein) was incubated; from tissue; host or cells: rat liver membranes
T1 sequence (Q5U3Y7 1-176): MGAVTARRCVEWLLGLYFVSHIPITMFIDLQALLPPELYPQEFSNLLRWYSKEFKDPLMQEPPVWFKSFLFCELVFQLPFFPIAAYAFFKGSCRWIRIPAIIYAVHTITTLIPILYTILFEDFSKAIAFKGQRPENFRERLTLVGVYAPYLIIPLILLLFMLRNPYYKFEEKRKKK
Protocol: Two rat livers were cut into small pieces and homogenized using a potter [Elvehjem Potter (B. Braun Biotech International, Melsungen, Germany); 500–800 rpm, 10 up-and-down strokes] in 6 volumes of cold 0.32 M sucrose. The suspension was centrifuged at 1200× g for 10 min at 4 °C. The supernatant was separated and centrifuged at 31,000× g for 20 min at 4 °C. The pellet was resuspended in 5–6 volumes of buffer (50 mM TRIS, pH 8.0) and incubated at rt for 30 min. After the incubation, the suspension was centrifuged again at 31,000× g for 20 min at 4 °C. The final pellet was resuspended in 5–6 volumes of buffer and stored at −80 °C in 1.5 mL portions containing about 2 mg of protein/mL.
The stock solution of the respective test compound (10 mM in DMSO) was diluted with the assay buffer to obtain the required test solutions for the assay. All binding experiments were carried out in duplicates in 96-well multiplates. The concentrations given are the final concentrations in the assay. The assays were performed with the radioligand [^3H]-DTG (specific activity 50 Ci/mmol; ARC, St. Louis, MO, USA). The thawed membrane preparation of rat liver (about 100 µg of protein) was incubated with various concentrations of the test compound, 3 nM [^3H]-DTG, and a buffer containing (+)-pentazocine (500 nM (+)-pentazocine in 50 mM TRIS, pH 8.0) at rt. The non-specific binding was determined with 10 μM non-labeled DTG. The Kd value of [^3H]-DTG is 17.9 nM [43].
Generally, the assays were performed by adding 50 µL of the respective assay buffer and 50 µL of the test compound solution in various concentrations (10^−5, 10^−6, 10^−7, 10^−8, 10^−9, and 10^−10 mol/L), 50 µL of the corresponding radioligand solution, and 50 µL of the respective receptor preparation into each well of the multiplate (total volume 200 µL). The receptor preparation was added last. During the incubation, the multiplates were shaken at a speed of 500−600 rpm at rt. The assays were terminated after 120 min by rapid filtration using the harvester (MicroBeta FilterMate 96; PerkinElmer LAS, Rodgau, Germany) equipped with filtermats presoaked in 0.5% aqueous polyethylenimine solution for 2 h at rt before use. During the filtration, each well was washed five times with 300 µL of water. Subsequently, the filtermats were dried at 95 °C. The solid scintillator (Meltilex; PerkinElmer LAS, Rodgau, Germany) was melted on the dried filtermats at a temperature of 95 °C for 5 min. After solidifying the scintillator at rt, the trapped radioactivity in the filtermats was measured with the scintillation analyzer (MicroBeta Trilux; PerkinElmer LAS, Rodgau, Germany). Each position on the filtermat corresponds to one well of the multiplate and was measured for 5 min with the [^3H]-counting protocol. The overall counting efficiency was 20%. The IC50 values were calculated with the program GraphPad Prism® 3.0 (GraphPad Software, San Diego, CA, USA) by nonlinear regression analysis. Subsequently, the IC50 values were transformed into Ki values using the equation of Cheng and Prusoff. The Ki values are given as the mean value ± SEM from three independent experiments.

human MAO A = details: cited from earlier work
EeAChE = details: cited from earlier work
human σ1R = molecular target: T2, human σ1R (Homo sapiens, UniProt Q99720); test: hσ1R competitive radioligand binding assay; details: for Selectivity Index of Rat σ2R/Human σ1R: Ki rat σ2R/Ki hσ1R
T2 construct: expressed in transfected cells; host or cells: HEK293 (provided by Olivier Soriani, Université de Nice Sophia-Antipolis)
T2 sequence (Q99720 whole entry): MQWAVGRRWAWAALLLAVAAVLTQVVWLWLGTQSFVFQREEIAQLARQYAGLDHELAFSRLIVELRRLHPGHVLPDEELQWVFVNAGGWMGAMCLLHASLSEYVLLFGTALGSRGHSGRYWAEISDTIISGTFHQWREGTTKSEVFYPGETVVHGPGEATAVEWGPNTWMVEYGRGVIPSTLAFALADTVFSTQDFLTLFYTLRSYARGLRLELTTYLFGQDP
Protocol: The hσ1R competitive binding assay was performed as previously reported. In brief, radioligand competition experiments were performed using preparations from HEK293 cells stably transfected with human σ1R cells (provided by Olivier Soriani, Université de Nice Sophia-Antipolis, Nice, France). The binding of the σ1R specific radioligand (+)-[^3H]pentazocine (1.051 TBq/mmol; PerkinElmer LAS GmbH, Rodgay, Germany) was measured at equilibrium in the presence of the test compounds at different concentrations (10 mM stock solutions in DMSO; final concentrations 10^−5–10^−11 M, 0.1 % DMSO) in TRIS buffer at pH 7.4 (50 mM TRIS-HCl, 120 mM NaCl, 5 mM KCl, 2 mM CaCl2, 1 mM MgCl2). Total binding was measured without the addition of a competitor, and non-specific binding was measured with 10 µM haloperidol as the competitor. The vials were incubated at room temperature (rt) (~21 °C) at 300 rpm. The incubation was terminated after 60 min by vacuum filtration using Whatman® GF/B glass-fiber filtermats (#FPD-100, Brandel Inc., Gaithersburg, MD, USA), soaked with freshly prepared 0.3% polyethyleneimine, using a 48-well harvester (Brandel Inc., Gaithersburg, MD, USA). Filters were washed four times with cold buffer (50 mM TRIS-HCl, pH 7.4 at 4 °C) and placed in scintillation vials. In total, 3 mL of a liquid scintillation cocktail (Ultima Gold TM; PerkinElmer, Waltham, MA, USA) was filled in each vial, and the vials were shaken at rt at 375 rpm for 120 min. Filter-bound radioactivity was measured in a Hidex 600 SL liquid scintillation counter (Hidex, Turku, Finnland). By performing nonlinear regression analysis of the binding curves (GraphPad Prism 3.0, GraphPad Software, Inc., La Jolla, CA, USA), the IC50 values were obtained, and the equilibrium inhibition constants Ki were calculated according to the Cheng–Prusoff equation [36], using the in-house determined equilibrium dissociation constant KD of 33 nM (+)-[^3H]pentazocine. Each test compound was measured in 2–3 independent experiments, each performed in triplicate.

gpσ1R = gpσ1R (Cavia porcellus, UniProt Q60492); test: gpσ1R affinity; assay type: binding
Chain of gpσ1R (Q60492 whole entry): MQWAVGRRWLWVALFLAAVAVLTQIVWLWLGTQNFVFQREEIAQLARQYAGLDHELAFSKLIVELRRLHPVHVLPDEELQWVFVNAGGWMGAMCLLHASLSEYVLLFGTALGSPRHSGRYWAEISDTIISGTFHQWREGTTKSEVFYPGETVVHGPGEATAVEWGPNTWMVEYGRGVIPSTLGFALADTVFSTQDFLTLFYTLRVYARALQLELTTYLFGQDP

[1] = rat liver membrane preparations, radioligand [3H]ditolylguanidine, (+)-pentazocine to mask σ1R, mean ± SEM, read-out: Ki Rat σ2R
[2] = membrane preparations of HEK-293 cells stably transfected with hσ1R, radioligand (+)-[3H]pentazocine, two experiments: mean (individual values), three or more: mean ± SD, read-out: Ki Human σ1R

Row | Structure (SMILES) | IC50 BuChE (eqBuChE; eqBuChE) | IC50 MAO B (human MAO B) | Ki (rat σ2R) [nM] | IC50 MAO A (human MAO A) | IC50 (EeAChE) [nM] | Ki (human σ1R) | Selectivity Index of Rat σ2R/Human σ1R (human σ1R) | IC50 (eqBuChE; eqBuChE) [nM] | Ki (rat σ2R; [1]) [nM] | Ki (human σ1R; [2]) | Ki (gpσ1R) [nM] | IC50 (eqBuChE; as given in the text) [nM] | fold higher affinity for hσ1R than the standards NE-100 and PB2 (human σ1R; compared with the standards) [fold] | IC50 (human MAO A) [nM] | fold more affine for rat σ2R than for hσ1R (rat σ2R; Ki hσ1R vs Ki rat σ2R) [fold]
1 | C#CCNc1nc(NC2CCN(Cc3ccccc3)CC2)c(C#N)cc1C#N [Compound 1] | n.i. | n.i. | 173 | n.i. | 530 ± 70 | 29.2 nM | 5.9 |  |  |  |  |  |  |  | 
2 | C#CCNc1nc(NCCC2CCN(Cc3ccccc3)CC2)c(C#N)cc1C#N [Compound 2] | n.i. | n.i. | 42 ± 8 | n.i. | 16 ± 2 | 7.57 ± 0.59 nM | 5.6 |  |  |  |  |  |  |  | 
3 | C#CCNc1nc(NCCCC2CCN(Cc3ccccc3)CC2)c(C#N)cc1C#N [Compound 3] |  | n.i. | 37 ± 5 | n.i. | 4.7 ± 0.5 | ~3 nM and 2.97 nM | 13 | 2030 ± 370 |  |  |  |  |  |  | 
4 | C#CCNc1nc(NCCCCC2CCN(Cc3ccccc3)CC2)c(C#N)cc1C#N [Compound 4] |  | n.i. |  | n.i. | 1.3 ± 0.3 |  | 41 | 530 ± 60 | 163 ± 50 | 3.97 ± 0.66 nM |  |  |  |  | 
5 | C#CCN(C)c1nc(NCCC2CCN(Cc3ccccc3)CC2)c(C#N)cc1C#N [Compound 5, 2-{[2-(1-benzylpiperidin-4-yl)ethyl]amino}-6-[methyl(prop-2-yn-1-yl)amino]pyridine-3,5-dicarbonitrile] |  | n.i. | 389 | n.i. | 13 | 1.45 ± 0.43 nM | 270 |  |  |  | 2.9 | 3100 | ~1.3 |  | 
6 | C#CCN(C)c1nc(NCCCC2CCN(Cc3ccccc3)CC2)c(C#N)cc1C#N [Compound 6] |  | n.i. | 129 ± 26 |  | 6.2 ± 1.4 | ~3 nM and 3.05 nM | 42 | 1120 ± 160 |  |  |  |  |  | 6110 ± 1400 | 
7 | C#CCN(C)c1nc(NCCCCC2CCN(Cc3ccccc3)CC2)c(C#N)cc1C#N [Compound 7] |  | n.i. |  |  | 1.1 ± 0.3 |  |  | 600 ± 80 | 288 | ~3 nM and 3.09 nM |  |  |  |  | 
8 | C#CCNc1nc(NC2CCN(Cc3ccccc3)CC2)c(C#N)c(-c2ccccc2)c1C#N [Compound 8] | n.i. | n.i. | 141 |  | 4000 ± 100 | 27.3 nM | 5.2 |  |  |  |  |  |  | 25 ± 1 | 
9 | C#CCNc1nc(NCCCC2CCN(Cc3ccccc3)CC2)c(C#N)c(-c2ccccc2)c1C#N [Compound 9] | n.i. | n.i. | 104 ± 22 | n.i. | 19 ± 5 | 7.45 ± 4.32 nM | 14 |  |  |  |  |  |  |  | 
10 | C#CCNc1nc(NCCCCC2CCN(Cc3ccccc3)CC2)c(C#N)c(-c2ccccc2)c1C#N [Compound 10] |  | n.i. |  | n.i. | 1.7 ± 0.3 |  | 2.5 | 840 ± 100 | 39 | 15.4 nM |  |  |  |  | 
11 | C#CCN(C)c1nc(NCC2CCN(Cc3ccccc3)CC2)c(C#N)c(-c2ccccc2)c1C#N [Compound 11, 2-{[(1-benzylpiperidin-4-yl)methyl]amino}-6-[methyl(prop-2-yn-1-yl)amino]-4-phenylpyridine-3,5-dicarbonitrile] |  | n.i. | 55 | n.i. | 270 ± 52 | 119 nM | 0.46 | 5000 ± 700 |  |  |  |  |  |  | 2
12 | C#CCN(C)c1nc(NCCCC2CCN(Cc3ccccc3)CC2)c(C#N)c(-c2ccccc2)c1C#N [Compound 12] |  | n.i. | 393 | n.i. | 14 ± 1 | 10.9 ± 1.9 nM | 36 | 230 ± 30 |  |  |  |  |  |  | 
